Data: the kinase profiling compilation of Christmann-Franck et al. (2016)

Experiments:
Assay in all cases: KINOMEscan competition binding
Settings in all cases: compound 10.0 µM
[1] = biological target: CAMK2G (human) (UniProt Q13555)
[2] = biological target: FRK (human) (UniProt P42685)
[3] = biological target: DDR2 (human) (UniProt Q16832)
[4] = biological target: ACVR2B (human) (UniProt Q13705)
[5] = biological target: SIK2 (human) (UniProt Q9H0K1)
[6] = biological target: MAPK4 (human) (UniProt P31152)
Chain of MAPK4 (human) (P31152 whole entry, looked up): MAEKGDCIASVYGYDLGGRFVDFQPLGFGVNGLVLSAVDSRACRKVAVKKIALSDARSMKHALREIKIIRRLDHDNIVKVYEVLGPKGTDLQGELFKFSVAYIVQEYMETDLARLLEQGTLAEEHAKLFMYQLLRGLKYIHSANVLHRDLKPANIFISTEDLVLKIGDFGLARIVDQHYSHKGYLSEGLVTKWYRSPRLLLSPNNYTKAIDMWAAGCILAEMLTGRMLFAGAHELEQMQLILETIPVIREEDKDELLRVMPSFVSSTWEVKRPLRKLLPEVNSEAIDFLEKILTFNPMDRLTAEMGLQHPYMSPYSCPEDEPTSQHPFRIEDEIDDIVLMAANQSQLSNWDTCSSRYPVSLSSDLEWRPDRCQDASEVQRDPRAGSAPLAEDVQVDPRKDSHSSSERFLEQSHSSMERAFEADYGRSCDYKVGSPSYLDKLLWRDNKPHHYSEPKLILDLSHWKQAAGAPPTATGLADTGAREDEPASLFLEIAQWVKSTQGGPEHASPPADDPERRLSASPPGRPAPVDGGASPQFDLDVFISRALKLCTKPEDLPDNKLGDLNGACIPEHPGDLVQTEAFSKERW

[7] = biological target: CLK3 (human) (UniProt P49761)
[8] = biological target: BMPR1A (human) (UniProt P36894)
[9] = biological target: DAPK2 (human) (UniProt Q9UIK4)
[10] = biological target: AURKA (human) (UniProt O14965)
[11] = biological target: FLT3 (human) (UniProt P36888)
[12] = biological target: CSF1R (human) (UniProt P07333)
Chain of CSF1R (human) (P07333 whole entry, looked up): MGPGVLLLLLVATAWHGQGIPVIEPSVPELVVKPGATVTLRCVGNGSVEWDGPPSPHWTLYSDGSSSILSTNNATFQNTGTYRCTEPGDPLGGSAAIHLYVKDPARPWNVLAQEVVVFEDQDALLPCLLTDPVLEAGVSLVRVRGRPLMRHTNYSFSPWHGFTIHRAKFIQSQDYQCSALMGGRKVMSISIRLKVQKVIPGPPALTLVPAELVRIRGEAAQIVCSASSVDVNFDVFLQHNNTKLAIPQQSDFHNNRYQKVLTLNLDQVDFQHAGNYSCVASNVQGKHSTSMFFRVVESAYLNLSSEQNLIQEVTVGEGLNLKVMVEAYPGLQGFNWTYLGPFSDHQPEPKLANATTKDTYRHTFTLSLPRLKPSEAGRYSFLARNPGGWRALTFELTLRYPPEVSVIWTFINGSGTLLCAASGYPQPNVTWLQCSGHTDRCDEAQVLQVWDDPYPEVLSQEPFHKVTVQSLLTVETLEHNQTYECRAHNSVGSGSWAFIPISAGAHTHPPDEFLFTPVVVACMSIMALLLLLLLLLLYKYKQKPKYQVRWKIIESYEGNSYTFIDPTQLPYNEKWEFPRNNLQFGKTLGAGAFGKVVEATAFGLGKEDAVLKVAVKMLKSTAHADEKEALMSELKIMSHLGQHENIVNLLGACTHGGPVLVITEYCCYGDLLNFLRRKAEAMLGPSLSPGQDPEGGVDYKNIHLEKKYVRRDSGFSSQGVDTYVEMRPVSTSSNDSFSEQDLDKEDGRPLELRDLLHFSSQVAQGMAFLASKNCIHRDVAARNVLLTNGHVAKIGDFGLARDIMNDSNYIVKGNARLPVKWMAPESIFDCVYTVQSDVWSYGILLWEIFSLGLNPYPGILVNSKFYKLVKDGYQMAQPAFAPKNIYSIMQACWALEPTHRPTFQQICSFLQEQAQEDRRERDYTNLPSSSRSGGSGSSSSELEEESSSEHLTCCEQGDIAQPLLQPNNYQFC

[13] = biological target: EPHA7 (human) (UniProt Q15375)
[14] = biological target: PKMYT1 (human) (UniProt Q99640)
[15] = biological target: INSR (human) (UniProt P06213)
[16] = biological target: PAK7 (human) (UniProt Q9P286)
[17] = biological target: MAPK7 (human) (UniProt Q13164)
[18] = biological target: HIPK1 (human) (UniProt Q86Z02)
[19] = biological target: PRKACA (human) (UniProt P17612)
[20] = biological target: CAMK2A (human) (UniProt Q9UQM7)
[21] = biological target: INSRR (human) (UniProt P14616)
Chain of INSRR (human) (P14616 whole entry, looked up): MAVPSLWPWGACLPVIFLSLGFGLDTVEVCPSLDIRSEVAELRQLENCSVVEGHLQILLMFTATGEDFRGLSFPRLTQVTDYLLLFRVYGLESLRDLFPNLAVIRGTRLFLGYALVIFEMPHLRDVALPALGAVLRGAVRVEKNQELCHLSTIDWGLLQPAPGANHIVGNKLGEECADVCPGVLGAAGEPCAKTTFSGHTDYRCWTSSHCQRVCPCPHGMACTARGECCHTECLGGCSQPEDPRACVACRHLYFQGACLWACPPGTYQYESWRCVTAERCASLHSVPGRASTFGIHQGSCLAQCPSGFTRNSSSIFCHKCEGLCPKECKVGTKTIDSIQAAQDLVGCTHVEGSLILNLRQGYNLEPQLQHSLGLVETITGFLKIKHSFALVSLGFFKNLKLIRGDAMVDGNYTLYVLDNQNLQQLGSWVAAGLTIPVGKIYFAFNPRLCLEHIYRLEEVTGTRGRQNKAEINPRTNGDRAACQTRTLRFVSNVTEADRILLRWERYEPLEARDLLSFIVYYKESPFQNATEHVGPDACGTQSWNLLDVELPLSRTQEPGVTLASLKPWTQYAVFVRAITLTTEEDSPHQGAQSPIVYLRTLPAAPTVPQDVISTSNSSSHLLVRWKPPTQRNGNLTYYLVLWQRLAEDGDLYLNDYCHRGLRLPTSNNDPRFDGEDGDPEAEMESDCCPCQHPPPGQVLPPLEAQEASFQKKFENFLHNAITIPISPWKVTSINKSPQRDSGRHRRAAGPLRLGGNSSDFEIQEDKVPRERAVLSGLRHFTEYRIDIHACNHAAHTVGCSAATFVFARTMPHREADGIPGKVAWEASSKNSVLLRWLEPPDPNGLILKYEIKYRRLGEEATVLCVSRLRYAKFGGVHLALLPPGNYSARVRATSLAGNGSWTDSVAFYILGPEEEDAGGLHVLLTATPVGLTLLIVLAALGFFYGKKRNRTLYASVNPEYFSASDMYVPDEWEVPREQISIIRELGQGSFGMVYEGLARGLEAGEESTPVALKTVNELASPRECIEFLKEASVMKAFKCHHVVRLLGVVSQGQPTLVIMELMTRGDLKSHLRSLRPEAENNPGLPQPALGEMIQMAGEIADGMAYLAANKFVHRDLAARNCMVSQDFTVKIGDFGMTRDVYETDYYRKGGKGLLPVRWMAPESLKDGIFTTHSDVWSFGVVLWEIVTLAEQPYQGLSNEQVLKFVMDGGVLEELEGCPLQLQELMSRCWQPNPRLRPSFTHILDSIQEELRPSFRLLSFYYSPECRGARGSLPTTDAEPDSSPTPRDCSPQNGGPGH

[22] = biological target: DCLK1 (human) (UniProt O15075)
[23] = biological target: PLK3 (human) (UniProt Q9H4B4)
[24] = biological target: MAP3K7 (human) (UniProt O43318)
Chain of MAP3K7 (human) (O43318 whole entry, looked up): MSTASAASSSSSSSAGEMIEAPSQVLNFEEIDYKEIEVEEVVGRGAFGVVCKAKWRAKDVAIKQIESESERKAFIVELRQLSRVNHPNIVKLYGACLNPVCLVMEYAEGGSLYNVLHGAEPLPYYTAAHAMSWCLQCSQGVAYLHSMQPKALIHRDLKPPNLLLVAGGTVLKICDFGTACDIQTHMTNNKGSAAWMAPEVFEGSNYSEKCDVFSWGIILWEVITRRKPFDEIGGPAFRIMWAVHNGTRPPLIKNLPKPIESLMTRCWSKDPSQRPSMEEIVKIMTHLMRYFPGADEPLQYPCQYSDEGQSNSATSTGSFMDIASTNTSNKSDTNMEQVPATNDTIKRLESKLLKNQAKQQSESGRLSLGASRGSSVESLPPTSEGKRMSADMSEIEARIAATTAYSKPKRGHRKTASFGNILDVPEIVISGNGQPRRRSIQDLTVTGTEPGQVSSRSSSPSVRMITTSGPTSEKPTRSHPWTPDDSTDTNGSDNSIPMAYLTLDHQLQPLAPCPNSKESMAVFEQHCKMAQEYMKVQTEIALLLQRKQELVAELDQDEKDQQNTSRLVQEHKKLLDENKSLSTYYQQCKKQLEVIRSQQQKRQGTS

[25] = biological target: STK11 (human) (UniProt Q15831)
[26] = biological target: MAP3K9 (human) (UniProt P80192)
[27] = biological target: TGFBR2 (human) (UniProt P37173)
Chain of TGFBR2 (human) (P37173 whole entry, looked up): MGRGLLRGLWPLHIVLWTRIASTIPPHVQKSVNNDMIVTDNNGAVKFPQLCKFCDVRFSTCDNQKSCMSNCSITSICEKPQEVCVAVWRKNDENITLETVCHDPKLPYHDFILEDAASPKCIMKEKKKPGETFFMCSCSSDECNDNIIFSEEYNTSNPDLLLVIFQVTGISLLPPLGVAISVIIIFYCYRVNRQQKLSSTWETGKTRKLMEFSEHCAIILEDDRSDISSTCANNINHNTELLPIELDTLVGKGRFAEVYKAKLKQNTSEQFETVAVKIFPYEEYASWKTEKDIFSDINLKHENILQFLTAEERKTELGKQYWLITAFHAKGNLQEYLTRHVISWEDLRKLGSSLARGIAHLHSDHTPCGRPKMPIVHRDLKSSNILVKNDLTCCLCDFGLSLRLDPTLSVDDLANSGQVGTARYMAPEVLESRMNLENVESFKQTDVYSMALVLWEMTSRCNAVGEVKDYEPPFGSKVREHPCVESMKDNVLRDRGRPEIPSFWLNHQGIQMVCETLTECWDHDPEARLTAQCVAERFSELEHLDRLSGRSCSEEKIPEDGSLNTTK

[28] = biological target: MAP2K3 (human) (UniProt P46734)
[29] = biological target: CSNK1A1L (human) (UniProt Q8N752)
[30] = biological target: RPS6KA5 KD2 (human) (UniProt O75582)
[31] = biological target: TLK1 (human) (UniProt Q9UKI8)
[32] = biological target: ROCK2 (human) (UniProt O75116)
[33] = biological target: MAPK14 (human) (UniProt Q16539)
[34] = biological target: LIMK2 (human) (UniProt P53671)
[35] = biological target: FYN (human) (UniProt P06241)
[36] = biological target: BRSK1 (human) (UniProt Q8TDC3)
[37] = biological target: ADCK3 (human) (UniProt Q8NI60)
[38] = biological target: EPHA4 (human) (UniProt P54764)
[39] = biological target: PHKG2 (human) (UniProt P15735)
[40] = biological target: ULK2 (human) (UniProt Q8IYT8)
Chain of ULK2 (human) (Q8IYT8 whole entry, looked up): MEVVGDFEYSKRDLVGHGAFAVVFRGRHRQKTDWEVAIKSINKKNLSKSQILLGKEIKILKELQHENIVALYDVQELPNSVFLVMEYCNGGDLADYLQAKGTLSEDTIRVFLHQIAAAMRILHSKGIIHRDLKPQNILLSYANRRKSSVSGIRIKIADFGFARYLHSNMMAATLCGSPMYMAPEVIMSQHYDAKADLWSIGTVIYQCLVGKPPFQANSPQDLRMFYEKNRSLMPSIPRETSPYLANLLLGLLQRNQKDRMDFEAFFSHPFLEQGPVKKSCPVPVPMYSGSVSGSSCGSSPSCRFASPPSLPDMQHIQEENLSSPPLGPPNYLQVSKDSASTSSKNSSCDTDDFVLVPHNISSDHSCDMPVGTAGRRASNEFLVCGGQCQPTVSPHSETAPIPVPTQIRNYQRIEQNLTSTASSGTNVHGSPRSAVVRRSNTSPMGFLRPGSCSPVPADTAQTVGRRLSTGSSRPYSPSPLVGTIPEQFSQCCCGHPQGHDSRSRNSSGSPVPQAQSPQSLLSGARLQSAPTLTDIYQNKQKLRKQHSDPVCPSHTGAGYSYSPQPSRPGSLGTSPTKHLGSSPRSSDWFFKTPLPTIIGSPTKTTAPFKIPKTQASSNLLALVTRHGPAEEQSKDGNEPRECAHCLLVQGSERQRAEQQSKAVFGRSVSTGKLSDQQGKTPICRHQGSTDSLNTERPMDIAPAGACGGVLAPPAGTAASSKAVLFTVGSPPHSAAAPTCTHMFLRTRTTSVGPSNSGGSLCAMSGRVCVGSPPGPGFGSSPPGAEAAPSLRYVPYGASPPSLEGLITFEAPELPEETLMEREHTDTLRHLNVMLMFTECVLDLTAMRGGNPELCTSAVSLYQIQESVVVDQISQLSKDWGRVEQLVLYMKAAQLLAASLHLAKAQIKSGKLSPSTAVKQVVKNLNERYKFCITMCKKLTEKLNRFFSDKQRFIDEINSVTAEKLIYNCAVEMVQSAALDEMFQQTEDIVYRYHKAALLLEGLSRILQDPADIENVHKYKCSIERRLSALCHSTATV

| Structure (SMILES) | kinase still bound, per cent of control [1] [%] | kinase still bound, per cent of control [2] [%] | kinase still bound, per cent of control [3] [%] | kinase still bound, per cent of control [4] [%] | kinase still bound, per cent of control [5] [%] | kinase still bound, per cent of control [6] [%] | kinase still bound, per cent of control [7] [%] | kinase still bound, per cent of control [8] [%] | kinase still bound, per cent of control [9] [%] | kinase still bound, per cent of control [10] [%] | kinase still bound, per cent of control [11] [%] | kinase still bound, per cent of control [12] [%] | kinase still bound, per cent of control [13] [%] | kinase still bound, per cent of control [14] [%] | kinase still bound, per cent of control [15] [%] | kinase still bound, per cent of control [16] [%] | kinase still bound, per cent of control [17] [%] | kinase still bound, per cent of control [18] [%] | kinase still bound, per cent of control [19] [%] | kinase still bound, per cent of control [20] [%] | other results |
| --- | --- | --- | --- | --- | --- | --- | --- | --- | --- | --- | --- | --- | --- | --- | --- | --- | --- | --- | --- | --- | --- |
| Cc1ccc(C(=O)Nc2cccc(C(F)(F)F)c2)cc1Nc1cncc(C(N)=O)c1 | 100 | 1.3 | 0 | 100 | 100 | 100 | 100 | 100 | 100 | 100 | 100 | 1.4 | 100 | 100 | 100 | 100 | 100 | 100 | 100 | 100 | kinase still bound, per cent of control [21]: 100%; kinase still bound, per cent of control [22]: 100%; kinase still bound, per cent of control [23]: 100%; kinase still bound, per cent of control [24]: 100%; kinase still bound, per cent of control [25]: 100%; kinase still bound, per cent of control [26]: 100%; kinase still bound, per cent of control [27]: 100%; kinase still bound, per cent of control [28]: 100%; kinase still bound, per cent of control [29]: 100%; kinase still bound, per cent of control [30]: 100%; kinase still bound, per cent of control [31]: 100%; kinase still bound, per cent of control [32]: 100%; kinase still bound, per cent of control [33]: 5%; kinase still bound, per cent of control [34]: 100%; kinase still bound, per cent of control [35]: 100%; kinase still bound, per cent of control [36]: 100%; kinase still bound, per cent of control [37]: 100%; kinase still bound, per cent of control [38]: 6.8%; kinase still bound, per cent of control [39]: 100%; kinase still bound, per cent of control [40]: 100% |
| Cc1ccc(NC(=O)c2cccc(C(C)(C)C#N)c2)cc1Nc1ccc2ncn(C)c(=O)c2c1 | 100 | 2.8 | 21 | 100 | 77 | 100 | 100 | 100 | 100 | 100 | 61 | 0.1 | 84 | 98 | 100 | 100 | 100 | 100 | 100 | 100 | kinase still bound, per cent of control [21]: 100%; kinase still bound, per cent of control [22]: 97%; kinase still bound, per cent of control [23]: 100%; kinase still bound, per cent of control [24]: 17%; kinase still bound, per cent of control [25]: 100%; kinase still bound, per cent of control [26]: 94%; kinase still bound, per cent of control [27]: 94%; kinase still bound, per cent of control [28]: 80%; kinase still bound, per cent of control [29]: 100%; kinase still bound, per cent of control [30]: 100%; kinase still bound, per cent of control [31]: 100%; kinase still bound, per cent of control [32]: 80%; kinase still bound, per cent of control [33]: 0%; kinase still bound, per cent of control [34]: 95%; kinase still bound, per cent of control [35]: 3.6%; kinase still bound, per cent of control [36]: 91%; kinase still bound, per cent of control [37]: 100%; kinase still bound, per cent of control [38]: 0%; kinase still bound, per cent of control [39]: 100%; kinase still bound, per cent of control [40]: 100% |
| CCOc1cc2ncc(C#N)c(Nc3ccc(OCc4ccccn4)c(Cl)c3)c2cc1NC(=O)/C=C/CN(C)C | 95 | 100 | 100 | 100 | 58 | 100 | 86 | 89 | 87 | 87 | 100 | 68 | 97 | 84 | 46 | 72 | 100 | 71 | 95 | 90 | kinase still bound, per cent of control [21]: 94%; kinase still bound, per cent of control [22]: 100%; kinase still bound, per cent of control [23]: 94%; kinase still bound, per cent of control [24]: 90%; kinase still bound, per cent of control [25]: 94%; kinase still bound, per cent of control [26]: 84%; kinase still bound, per cent of control [27]: 100%; kinase still bound, per cent of control [28]: 100%; kinase still bound, per cent of control [29]: 98%; kinase still bound, per cent of control [30]: 77%; kinase still bound, per cent of control [31]: 86%; kinase still bound, per cent of control [32]: 86%; kinase still bound, per cent of control [33]: 91%; kinase still bound, per cent of control [34]: 100%; kinase still bound, per cent of control [35]: 84%; kinase still bound, per cent of control [36]: 95%; kinase still bound, per cent of control [37]: 95%; kinase still bound, per cent of control [38]: 96%; kinase still bound, per cent of control [39]: 92%; kinase still bound, per cent of control [40]: 100% |
